US11440923B2, “Substituted macrocyclic indole derivatives” (Bayer Aktiengesellschaft, priority 2017, dated 2022)
Where a name gives a salt, the structure may show the parent alone. Read-outs that look alike come from different tables or passages of the source.

Key:
SUDHL5 cells [1] = assay: Induction of caspase-3/7 activity in SUDHL5 cells (Assay 4); format: cell-based
How it was run: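 Caspase-3/7 activity measured in DLBCL lines after 3 h compound exposure at 37 °C, following overnight plating; Caspase-Glo 3/7 luminescence read after 1 h at 37 °C. Medium-only background subtracted, values normalized to mean of DMSO-treated cells.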

BCL-XL = BCL-XL (Homo sapiens (Human), UniProt Q07817); assay: Protein-protein interaction assay BCL-XL/Bad BH3 peptide (BCL-XL assay, TR-FRET); format: binding; conditions: read-out: BCL-XL Assay IC50 (median)
Sequence of BCL-XL (Q07817 1-212): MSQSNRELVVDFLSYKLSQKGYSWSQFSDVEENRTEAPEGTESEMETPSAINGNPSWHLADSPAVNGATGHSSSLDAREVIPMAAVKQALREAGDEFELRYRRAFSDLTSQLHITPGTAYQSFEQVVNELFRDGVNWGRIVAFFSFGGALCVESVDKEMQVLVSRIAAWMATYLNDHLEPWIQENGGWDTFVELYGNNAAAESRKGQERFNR
Protocol: Assay 2 Protein-Protein Interaction Assay: BCL-XL/Bad BH3 Peptide (BCL-XL Assay)
The dose-dependent inhibition by the compounds described in this invention of the interaction between BCL-XL and the BH3 domain of Bad (both human) was determined using a steady state binding competition assay with time-resolved fluorescence energy transfer (TR-FRET) readout. For that purpose BCL-XL (amino acids 1-212, C-terminal fused to a hexahistidine (6×His) tag (SEQ ID 3) and a synthetic Bad BH3-derived peptide of sequence Biotin-PEG2-PEG2-[…]-Nle-[…]-amide (SEQ ID 4) served as protein receptor and tracer ligand respectively. The recombinant BCL-XL protein (expressed in E. coli) was purchased from BPS Bioscience (San Diego, Calif., USA). The Bad BH3-derived peptide can be obtained from e.g. Biosyntan (Berlin, Germany).
In the assay 11 different concentrations of each compound (0.1 nM, 0.33 nM, 1.1 nM, 3.8 nM, 13 nM, 44 nM, 0.15 μM, 0.51 μM, 1.7 μM, 5.9 μM and 20 μM) were typically measured as duplicates in the same microtiter plate. For that, 100-fold concentrated DMSO solutions were prepared by serial dilutions (1:3.4) of a 2 mM stock solution in a clear, 384-well microtiter plate (Greiner Bio-One, Frickenhausen, Germany). From there, 50 nl were transferred in a dark test plate (Greiner Bio-One, Frickenhausen, Germany). The assay was initiated by addition of 2 μL of a 2,5-fold concentrated His-BCL-XL solution (usually for a 1 nM end concentration in 5 μL reaction volume) in aqueous assay buffer [50 mM Tris/HCl pH 7, 100 mM sodium chloride (NaCl), 50 mM potassium fluoride (KF), 0.005% Tween-20, 2 mM DTT, 0.1% bovine gamma globulin (BGG)] to the compounds in the assay plate. This was followed by a 10-minute incubation step at 22° C. for pre-equilibration of the putative complex between His-BCL-XL and the compounds. After that, 3 μL of a 1.67-fold concentrated solution (in assay buffer) consisting of Bad BH3-derived peptide (1 nM end concentration) and TR-FRET detection reagents [1.67 nM anti-His-Eu cryptate and 1.67 nM streptavidin-XL665 (both from Cisbio Bioassays, Codolet, France)], were added.
The mixture was incubated in the dark for one hour at 22° C. and then overnight at 4° C. The formation of BCL-XL/Bad complexes was determined by measuring the resonance energy transfer of the anti-His- Eu-cryptate antibody to the streptavidin-XL665 present in the reaction. For that purpose, the fluorescence emission at 620 nm and 665 nm after excitation at 330-350 nm was measured in a TR-FRET measuring instrument, for instance a Rubystar or a Pherastar (both from BMG Lab Technologies, Offenburg, Germany) or a Viewlux (Perkin-Elmer). The ratio of the emission at 665 nm and at 622 nm was used as indicator of the amount of BCL-XL/Bad complexes present.
The resulting data (ratio) were normalized, taking 0% inhibition as the mean value of control measurements (usually 32 data points) where all reagents were included. In this case 50 nl DMSO were used instead of compounds. […] IC50 values were determined by regression analysis based on a 4 parameter equation (minimum, maximum, IC50, Hill; Y=Max+(Min−Max)/(1+(X/IC50)^Hill) using the Screener Software (Genedata).

SUDHL5 cells [2] = assay: Antiproliferation assay SUDHL5 (Assay 7); format: cell-based
How it was run: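 Luminescent viability signal (CellTiter-Glo) after 72 h of treatment served as read-out. IC50 values were derived with day 0 luminescence as CI and DMSO wells as C0.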

[3] = read-out: Caspase SUDHL5 EC50 (median); caspase-3/7 induction, 3 h
[4] = read-out: Antiproli SUDHL5 IC50 (median); 72 h, CellTiter-Glo
[5] = caspase-3/7 induction, 3 h; read-out: Caspase SUDHL5 EC50 (median)
[6] = 72 h, CellTiter-Glo; read-out: Antiproli SUDHL5 IC50 (median)

SMILES	EC50 (SUDHL5 cells [1]; [3])	IC50 (BCL-XL)	EC50 (SUDHL5 cells [1]; [5])	IC50 (SUDHL5 cells [2]; [6])	other results
CCc1c2c(nn1C)C(CCOC)OCCCCn1c(C(=O)O)c(CCCOc3cccc4cc(F)ccc34)c3ccc(Cl)c-2c31 (single isomer, unassigned; enantiomer 2) [Example 43, (−)-4-chloro-3-ethyl-7-{3-[(6-fluoronaphthalen-1-yl)oxy]propyl}-15-(2-methoxyethyl)-2-methyl-2,10,11,12,13,15-hexahydropyrazolo[4′,3′:9,10][1,6]oxazacycloundecino[8,7,6-hi]indole-8-carboxylic Acid—N-ethylethanamine Salt (Enantiomer 2)]	20000 nM	17200 nM			
CCc1c2c(nn1C)C(C(F)(F)F)OCCCCn1c(C(=O)O)c(CCCOc3cccc4ccccc34)c3ccc(Cl)c-2c31 (single isomer, unassigned; enantiomer 1) [Example 33, (+)-4-chloro-3-ethyl-2-methyl-7-{3-[(naphthalen-1-yl)oxy]propyl}-15-(trifluoromethyl)-2,10,11,12,13,15-hexahydropyrazolo[4′,3′:9,10][1,6]oxazacycloundecino[8,7,6-hi]indole-8-carboxylic Acid—N-ethylethanamine Salt (Enantiomer 1)]	1800 nM	> 20000 nM			
CCc1c2c(nn1C)C(CCN1CCN(C)CC1)OCCCCn1c(C(=O)O)c(CCCOc3cccc4cc(F)ccc34)c3ccc(Cl)c-2c31 (racemic) [Example 68, 4-chloro-3-ethyl-7-{3-[(6-fluoronaphthalen-1-yl)oxy]propyl}-2-methyl-(15-rac)-[2-(4-methylpiperazin-1-yl)ethyl]-2,10,11,12,13,15-hexahydropyrazolo[4′,3′:9,10][1,6]oxazacycloundecino[8,7,6-hi]indole-8-carboxylic Acid—N-ethylethanamine Salt (Mixture 1 of Stereoisomers)]		> 20000 nM			
CCC1OCCCCn2c(C(=O)O)c(CCCOc3cccc4ccccc34)c3ccc(Cl)c(c32)-c2c1nn(C)c2C (single isomer, unassigned; enantiomer 2) [Example 30, (−)-4-chloro-15-ethyl-2,3-dimethyl-7-{3-[(naphthalen-1-yl)oxy]propyl}-2,10,11,12,13,15-hexahydropyrazolo[4′,3′:9,10][1,6]oxazacycloundecino[8,7,6-hi]indole-8-carboxylic Acid—N-ethylethanamine Salt (Enantiomer 2)]	> 33000 nM	> 20000 nM			
CCc1c2c(nn1C)C(CCC1CCOCC1)OCCCCn1c(C(=O)O)c(CCCOc3cccc4cc(F)ccc34)c3ccc(Cl)c-2c31 (single isomer, unassigned; enantiomer 1) [Example 63, (+)-4-chloro-3-ethyl-7-{3-[(6-fluoronaphthalen-1-yl)oxy]propyl}-2-methyl-15-[2-(oxan-4-yl)ethyl]-2,10,11,12,13,15-hexahydropyrazolo[4′,3′:9,10][1,6]oxazacycloundecino[8,7,6-hi]indole-8-carboxylic Acid—N-ethylethanamine Salt (Enantiomer 1)]	35 nM				IC50 (SUDHL5 cells [2]; [4]): 42 nM
CCc1c2c(nn1C)C(CCN1CCN(C)CC1)OCCCCn1c(C(=O)O)c(CCCOc3cccc4cc(F)ccc34)c3ccc(Cl)c-2c31 (racemic) [Example 71, (rac)-4-chloro-3-ethyl-7-{3-[(6-fluoronaphthalen-1-yl)oxy]propyl}-2-methyl-(15-rac)-[2-(4-methylpiperazin-1-yl)ethyl]-2,10,11,12,13,15-hexahydropyrazolo[4′,3′:9,10][1,6]oxazacycloundecino[8,7,6-hi]indole-8-carboxylic Acid—N-ethylethanamine Salt (Mixture 2 Od Stereoisomers)]		> 20000 nM			
CCc1c2c(nn1C)C(CCN1CCOCC1)OCCCCn1c(C(=O)O)c(CCCOc3cccc4ccccc34)c3ccc(F)c-2c31 (single isomer, unassigned; enantiomer 1) [Example 11, 3-ethyl-4-fluoro-2-methyl-15-[2-(morpholin-4-yl)ethyl]-7-{3-[(naphthalen-1-yl)oxy]propyl}-2,10,11,12,13,15-hexahydropyrazolo[4′,3′:9,10][1,6]oxazacycloundecino[8,7,6-hi]indole-8-carboxylic Acid—N-ethylethanamine Salt (Enantiomer 1)]	97 nM				IC50 (SUDHL5 cells [2]; [4]): 75 nM
CCc1c2c(nn1C)C(CCC1CCOCC1)OCCCCn1c(C(=O)O)c(CCCOc3cccc4cc(F)ccc34)c3ccc(Cl)c-2c31 (single isomer, unassigned; enantiomer 1) [Example 61, 4-chloro-3-ethyl-7-{3-[(6-fluoronaphthalen-1-yl)oxy]propyl}-2-methyl-15-[2-(oxan-4-yl)ethyl]-2,10,11,12,13,15-hexahydropyrazolo[4′,3′:9,10][1,6]oxazacycloundecino[8,7,6-hi]indole-8-carboxylic Acid (Enantiomer 1)]			31 nM	24 nM	
CCc1c2c(nn1C)C1CCCN1CCCCn1c(C(=O)O)c(CCCOc3cccc4cc(F)ccc34)c3ccc(Cl)c-2c31 (single isomer, unassigned; (+)) [Example 105, (+)-17-chloro-1-ethyl-14-{3-[(6-fluoronaphthalen-1-yl)oxy]propyl}-2-methyl-3b,4,5,6,8,9,10,11-octahydro-2H-pyrazolo[3′,4′:8,9]pyrrolo[1′,2′:6,7][1,6]diazacycloundecino[10,11,1-hi]indole-13-carboxylic Acid]			330 nM	340 nM	
CCc1c2c(nn1C)C(CCC(C)(C)O)OCCCCn1c(C(=O)O)c(CCCOc3cccc4cc(F)ccc34)c3ccc(Cl)c-2c31 (single isomer, unassigned; enantiomer 1) [Example 75, (+)-4-chloro-3-ethyl-7-{3-[(6-fluoronaphthalen-1-yl)oxy]propyl}-15-(3-hydroxy-3-methylbutyl)-2-methyl-2,10,11,12,13,15-hexahydropyrazolo[4′,3′:9,10][1,6]oxazacycloundecino[8,7,6-hi]indole-8-carboxylic Acid—N-ethylethanamine Salt (Enantiomer 1)]			9.7 nM	11 nM	
CCc1c2c(nn1C)C1CCCCN1CCCCn1c(C(=O)O)c(CCCOc3cccc4ccccc34)c3ccc(Cl)c-2c31 (racemic) [Example 102, (rac)-18-chloro-1-ethyl-2-methyl-15-[3-(1-naphthyloxy)propyl]-2,3b,4,5,6,7,9,10,11,12-decahydropyrazolo[3′,4′:8,9]pyrido[1′,2′:6,7][1,6]diazacycloundecino[10,11,1-hi]indole-14-carboxylic Acid]					EC50 (SUDHL5 cells [1]; Homo sapiens, SU-DHL-5, 3 h, caspase-3/7 induction, 3 h; read-out: Caspase SUDHL5 EC50 (median)): 770 nM; IC50 (SUDHL5 cells [2]; Homo sapiens, SU-DHL-5, 72 h, 72 h, CellTiter-Glo; read-out: Antiproli SUDHL5 IC50 (median)): 1400 nM
CCc1c2c(nn1C)C(CCN1CC(F)(F)C1)OCCCCn1c(C(=O)O)c(CCCOc3cccc4cc(F)ccc34)c3ccc(Cl)c-2c31 (single isomer, unassigned; (+)) [Example 78, (+)-4-chloro-15-[2-(3,3-difluoroazetidin-1-yl)ethyl]-3-ethyl-7-{3-[(6-fluoronaphthalen-1-yl)oxy]propyl}-2-methyl-2,10,11,12,13,15-hexahydropyrazolo[4′,3′:9,10][1,6]oxazacycloundecino[8,7,6-hi]indole-8-carboxylic Acid—N-ethylethanamine Salt]			13 nM	16 nM	
